Source: publication PMC8502973 (Frontiers in Physiology, 2021)
Entries after “also recorded” stand apart in the source; their conditions may differ. Like-named read-outs stand apart in the source and are kept apart here. Positions of bridges follow the written chain, without caps; N, C: chain ends. Residues, ends and D or L forms follow the SMILES beside them. Groups on a side chain read outwards from the residue. *: point of attachment. PEG8 = NCCOCCOCCOCCOCCOCCOCCOCCOCCC(=O)O; Palmitoyl = CCCCCCCCCCCCCCCC(=O)*

Legend:
human V2 receptor = target: T1, human V2 receptor (Homo sapiens, UniProt P30518); assay: V2R agonist activity, cAMP production by HTRF, stably transfected CHO cells; type: cell-based; conditions: HTRF detection, read-out: hV2R, EC50
T1 construct: expressed in transfected cells; host or cells: CHO cells
T1 sequence (P30518 whole entry): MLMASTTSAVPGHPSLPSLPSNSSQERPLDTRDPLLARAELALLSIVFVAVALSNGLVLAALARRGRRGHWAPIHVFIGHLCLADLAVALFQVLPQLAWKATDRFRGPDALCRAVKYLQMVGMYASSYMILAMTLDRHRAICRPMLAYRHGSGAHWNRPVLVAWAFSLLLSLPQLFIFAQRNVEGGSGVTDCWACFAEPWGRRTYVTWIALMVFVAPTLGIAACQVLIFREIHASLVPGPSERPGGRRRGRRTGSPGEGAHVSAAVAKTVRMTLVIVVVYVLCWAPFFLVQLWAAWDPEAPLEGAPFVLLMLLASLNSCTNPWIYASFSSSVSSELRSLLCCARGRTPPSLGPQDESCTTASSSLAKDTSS
Protocol: V2R: Evaluation of the agonist activity of compounds at the human V2 receptor expressed in stably transfected CHO cells was conducted by measuring their effects on cAMP production using the HTRF detection method ([Cotte et al., 1998]).

[1] = Dose escalation: kaolin intake (pica, nausea/visceral malaise); type: in vivo, male DIO Sprague Dawley rats
Protocol: (§1) Sprague Dawley rats (male, ∼4 weeks of age, 51–75 g body weight) were switched from standard chow to a high fat diet (Research Diets, Diet # D12492, 60, 20, 20%kcal from fat, protein, and carbohydrate, respectively, 5.21 kcal/g; stored at −20°C). The rats were maintained on this diet for approximately 15 weeks prior to the start of experiments to develop a diet-induced overweight (DIO) model. Animals were individually housed on a 12 h/12 h light/dark cycle (lights on at 04:00 h) in a temperature (23°C) and humidity (mean 50%, SD 10%) controlled room. All body weight measurements were made just prior to the start of the dark cycle.
Sequential rounds of a 3-day baseline phase (vehicle treated), a 3-day treatment phase, and a washout phase (2–5 days as necessary) were tested. […] High fat diet was accessible to the rats from all but the last 6 h of the light cycle and water was provided ad libitum. This daily period of food restriction was used to prevent incidental feeding in the event animals were disturbed from their sleep by noise from surrounding rooms. To assess a potential pica response (nausea/visceral malaise) in animals, powdered kaolin (Sigma-Aldrich, K1512) was made available on drug treatment days with a restriction period similar to the high fat diet. Prior to the first experiment, rats were provided access to kaolin for 2 days so that they could familiarize themselves with it prior to start of testing. Food and kaolin intake were continuously recorded using AccuScan DietMax (currently OmniTech Electronics, Inc., Diet System) cages. The high fat diet was compressed in the food tray to form a solid block of food. This allows for more accurate meal size measurements by preventing the animals from removing entire pellets at time. All food and kaolin intake data were binned into 15-min intervals for analysis and the start of the 24-h food intake period aligned to the lights turning off in the animal room. Body weight was recorded, and treatment injections were administered just prior to the start of the dark cycle.

Toxicity / mortality = type: in vivo
[2] = Long-term (28-day) drug intervention: body weight; type: in vivo, male DIO Sprague Dawley rats; conditions: treatment days 9-28
Protocol: as §1
(§2) Male DIO Sprague Dawley rats (n = 24) were generated as outlined above and were 644.5 g (50 g) at the start of drug treatment. The animals were divided into three treatment groups (n = 8 each) balanced for body weight, body weight gain during baseline, food intake, and Lee Index [body weight^(1/3)/snout to anus length (mm)] ([Lee, 1929]; [Simson and Gold, 1982]) as an indicator of adiposity (Figure 2). In a subset of the animals (n = 5 per group, balanced for prior mentioned criteria), Mini-Mitter transponders (PDT-4000 E-Mitter, Respironics Inc.) were implanted posterior to the left scapula at least 9 days prior to start of baseline measures to ensure sufficient recovery time. Body temperature and gross motor activity were continuously recorded via these transponders. […] High fat diet and water were provided ad libitum and intake was recorded with daily hopper and water bottle weighs at time of body weight assessment just prior to drug administration. Blood samples were taken at start of intervention by tail vein bleeding and via cardiac puncture under an isoflurane induced surgical plane of anesthesia at euthanasia. Animals were euthanized on treatment day 29, 4 h after receiving a dose of their assigned treatment, via decapitation under isoflurane anesthesia immediately following blood draw. Body composition was assessed on carcasses.
From treatment day 8 on the doses were maintained to assess long-term efficacy at a therapeutically meaningful dose.

[3] = Long-term: gross motor activity and body temperature (Mini-Mitter transponders); type: in vivo, male DIO Sprague Dawley rats; conditions: 28-day study, n = 5 per group; first 12 days analysed
Description: as §2
For comparisons of mean longitudinal changes in body temperature and activity, only the first 12 days of treatment, divided into three 4-day phases, were included in the analysis. These 4-day phases allowed for analyses to consider the ASK1476 dose titration.

[4] = Long-term: hormone and metabolic blood parameters; type: in vivo, male DIO Sprague Dawley rats
Description: as §2, with “Animals were euthanized on treatment day 29, 4 h after receiving a dose of their assigned treatment, via decapitation under isoflurane anesthesia immediately following blood draw.” left out
Commercially available enzyme-linked immunosorbent assays (ELISA) were used for quantitative assessment of leptin (MilliporeSigma, Burlington, MA) and insulin (MilliporeSigma, Burlington, MA); all with intra-assay CV < 4%. […]

[5] = ref Modi et al., 2016, cited from earlier work
Description: This property allows for reduction of the free fraction of ASK1476 available for enzymatic degradation. The pharmacokinetics study protocol for ASK1476 in mice and rats was described before ([Modi et al., 2016]).

[6] = sc and iv, rodents; ref Modi et al., 2016; cited from earlier work

SMILES: CCCCCCCCCCCCCCCC(=O)NCCOCCOCCOCCOCCOCCOCCOCCOCCC(=O)NCCCC[C@H](NC(=O)CNC(=O)[C@@H]1CSSC[C@H](N)C(=O)N[C@@H](Cc2ccc(O)cc2)C(=O)N[C@@H]([C@@H](C)CC)C(=O)N[C@@H](CCC(N)=O)C(=O)N[C@@H](CC(N)=O)C(=O)N1)C(=O)NCC(N)=O [ASK1476] (H-CYIQNCGK([PEG8-Palmitoyl])G-NH2; disulfide 1-6)
- EC50 (human V2 receptor): 360 pM
- relationship between kaolin consumption and baseline normalized food intake ([1]; ASK1476 6, 15, 30, 60, 120 and 300 nmol/kg): no significant association
- visceral malaise signal (notably high kaolin intake in a few animals) ([1]; ASK1476 dosing spectrum): may result in visceral malaise in a subset of animals
- kaolin intake of several animals at higher doses ([1]; ASK1476 ≥ 30 nmol/kg/d, several animals, not seen with OXT): > 4 g/day
- kaolin intake, trend with dose ([1]; increasing ASK1476 doses, not significant): increasing trend
- kaolin intake at low doses ([1]; low doses, sc once daily): below 4 g/d
- kaolin intake, effect of treatment ([1]; sc once daily, ASK1476 6-300 nmol/kg F(1.80, 12.59) = 2.26, p = 0.148, OXT 20-1200 nmol/kg F(1.51, 10.52) = 1.73, p = 0.223): no significant effect of treatment
- death (Toxicity / mortality; 150 nmol/kg intraperitoneal, unpublished dosing experiment): death of a rat
- death (Toxicity / mortality; 300 nmol/kg daily sc, after third dose, cause of death not established): one rat was found dead
- weight stability during final 20 days [2]: remained weight stable
- locomotor activity or body temperature [3]: no effects were detected on locomotor activity or body temperature; also recorded: did not find any evidence
- serum ALT, difference vs vehicle ([4]; ASK1476, 95% CI −2.1 to −13.2, p = 0.006): −7.6 U/L
- ALT, post-treatment ([4]; after 28-day Tx, serum, n = 8, Mean ± SD, ASK1476 ** p < 0.01 vs vehicle, ANOVA p 0.009): 0.440.06** μmol/(sL)
- half-life vs OXT ([5]; iv, rats, compared to OXT): extended half-life
- plasma clearance vs OXT ([5]; iv, rats, compared to OXT): reduced plasma clearance
- steady-state volume of distribution vs OXT ([5]; iv, rats, compared to OXT): increased steady-state volume of distribution
- brain to plasma concentration ratio (distribution) ([5]; sc, depot formulation): almost exclusive compartmentalization of the molecule to plasma
- concentrations in the central compartments ([5]; sc, depot formulation): only minimal concentrations detectable
- plasma exposure ([5]; sc, depot formulation): prolonged exposure in the plasma
- total maximal plasma concentration (Cmax) ([5]; sc, mice, at 2 h post-dose): improved total maximal plasma concentration (Cmax)
- half-life ([5]; sc, mice): extended half-life
- half-life vs OXT [6]: increased half-life
- plasma protein binding vs OXT [6]: increased plasma protein binding
